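1) Cells in 96-well plates. 2) Compound, 48 h, 5 concentrations. 3) Linear interpolation between surrounding doses. 4) Unreached endpoint = highest concentration. At the GI50, growth is halved. TGI: concentration producing complete growth inhibition.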

Some test systems named below: CCRF-CEM leukemia; HCT-116 colon; NCI-H460 lung; OVCAR-8 ovarian; U251 CNS; MALME-3M melanoma; SF-295 CNS; TK-10 renal; UACC-257 melanoma.
What all share (assay): DTP human tumour cell line panel, 48 h

Regarding `COc1ncc(-c2ccc3ncnc(Nc4cccc(Cl)c4)c3c2)cc1NS(=O)(=O)CCN1CCOCC1`, the GI50 – broadly, the concentration that inhibits growth by half – is 0.799 µM with CCRF-CEM leukemia; 1.49 µM in the assay with HCT-116 colon; 0.393 µM in the assay with NCI-H460 lung; 0.7 µM in the assay with OVCAR-8 ovarian; 0.824 µM in the assay with U251 CNS. Besides, the TGI with CCRF-CEM leukemia, with HCT-116 colon, in the assay on NCI-H460 lung, in the assay with OVCAR-8 ovarian and in the assay with U251 CNS was greater than 100 µM in each case.
Take `O=C(/C=C/c1c(O)ccc2ccccc12)c1ccccc1`: the TGI with CCRF-CEM leukemia, in the assay on HCT-116 colon, with MALME-3M melanoma, with NCI-H460 lung, in the assay with OVCAR-8 ovarian and in the assay on SF-295 CNS was greater than 100 µM throughout. In addition, the TGI with TK-10 renal, in the assay with U251 CNS and in the assay on UACC-257 melanoma was greater than 100 µM in each case.
In the case of `N.N.O=C([O-])P(=O)([O-])[O-].[Na+].[Pt+4]`, the GI50 with CCRF-CEM leukemia, in the assay with HCT-116 colon, in the assay with MALME-3M melanoma, in the assay on NCI-H460 lung, in the assay on OVCAR-8 ovarian and in the assay with SF-295 CNS was greater than 100 µM in each case. Further, the GI50 with TK-10 renal, in the assay with U251 CNS and in the assay with UACC-257 melanoma was greater than 100 µM in each case. Besides, the TGI with CCRF-CEM leukemia, with HCT-116 colon, with MALME-3M melanoma, in the assay on NCI-H460 lung, in the assay on OVCAR-8 ovarian and with SF-295 CNS was greater than 100 µM each time. The concentration for total growth inhibition (TGI) in the assay on TK-10 renal, in the assay with U251 CNS and in the assay on UACC-257 melanoma was greater than 100 µM in each case.
As to `Cc1[nH]c2ccccc2c1C1Cc2ccccc2N1C(=O)/C(Cl)=C/c1ccccc1` (stereo not given), the TGI in the assay with CCRF-CEM leukemia, in the assay on HCT-116 colon, in the assay on MALME-3M melanoma, in the assay on NCI-H460 lung, in the assay with OVCAR-8 ovarian and with SF-295 CNS was greater than 100 µM in each case. Moreover, the concentration for total growth inhibition (TGI) with TK-10 renal, in the assay on U251 CNS and in the assay with UACC-257 melanoma was greater than 100 µM in each case.
As for `C/C=C1/C(=C/c2[nH]c(/C=c3\[nH]/c(=C/C4=NC(=O)C(CC)=C4C)c(C)c3CCC(=O)O)c(CCC(=O)O)c2C)NC(=O)C1C` (stereo not given), the GI50 in the assay with CCRF-CEM leukemia, with HCT-116 colon, in the assay on MALME-3M melanoma, with NCI-H460 lung, in the assay with OVCAR-8 ovarian and with TK-10 renal was greater than 150 µg/mL throughout. For the same compound, the GI50 with U251 CNS is greater than 150 µg/mL. In addition, the TGI in the assay on CCRF-CEM leukemia, with HCT-116 colon, in the assay on MALME-3M melanoma, in the assay with NCI-H460 lung, in the assay with OVCAR-8 ovarian and in the assay with TK-10 renal was greater than 150 µg/mL in each case. Moreover, in the assay on U251 CNS, the TGI (usually the concentration at which net growth stops) was greater than 150 µg/mL.
In the case of `Cc1nc2ccccc2c(=O)n1-c1ccccc1F`, the total growth inhibition concentration (TGI) in the assay on CCRF-CEM leukemia, in the assay with HCT-116 colon, with MALME-3M melanoma, in the assay with NCI-H460 lung, in the assay with OVCAR-8 ovarian and with SF-295 CNS was greater than 100 µM throughout. In addition, the TGI in the assay on TK-10 renal, with U251 CNS and in the assay on UACC-257 melanoma was greater than 100 µM in each case.
For `COC1=CC2(C=CC1=O)c1cc(OC)c(OC)cc1CCN2C(=O)c1ccccc1` (stereo not given), the TGI in the assay with CCRF-CEM leukemia, with HCT-116 colon, in the assay on MALME-3M melanoma, in the assay with OVCAR-8 ovarian, in the assay on SF-295 CNS and with TK-10 renal was greater than 100 µM in each case. The TGI in the assay on U251 CNS and in the assay with UACC-257 melanoma was greater than 100 µM each time.
As to `CCCCCCC(=O)C/C(=N/NC(N)=S)C(=O)NC1C2CC3CC(C2)CC1C3` (stereo not given), the TGI with CCRF-CEM leukemia, in the assay with HCT-116 colon, in the assay on MALME-3M melanoma, in the assay with NCI-H460 lung, in the assay with OVCAR-8 ovarian and in the assay with SF-295 CNS was greater than 100 µM each time. The TGI in the assay on TK-10 renal, in the assay with U251 CNS and in the assay with UACC-257 melanoma was greater than 100 µM in each case.
On to `COc1ccc(CNc2nc3cc(C(F)(F)F)ccc3nc2C)cc1OC`, for which the TGI is greater than 100 µM in the assay with CCRF-CEM leukemia; greater than 100 µM with HCT-116 colon; 44.1 µM in the assay on MALME-3M melanoma; greater than 100 µM in the assay on NCI-H460 lung; greater than 100 µM in the assay on OVCAR-8 ovarian; greater than 100 µM with SF-295 CNS. The TGI in the assay with TK-10 renal was 87.8 µM; in the assay on U251 CNS, greater than 100 µM; in the assay on UACC-257 melanoma it was 42.6 µM.
For the compound `OC/C=C(\I)CCCOCOCc1ccccc1`, the TGI with CCRF-CEM leukemia was 46.1 µM; in the assay with HCT-116 colon it was greater than 100 µM; with NCI-H460 lung it was greater than 100 µM; in the assay on OVCAR-8 ovarian, greater than 100 µM; with SF-295 CNS, greater than 100 µM; in the assay on TK-10 renal, greater than 100 µM. In addition, the TGI in the assay with U251 CNS stood at 64 µM.
Regarding `N#C/C(=C\c1cc2ccccc2c2ccccc12)c1ccccc1`, the concentration for total growth inhibition (TGI) is 36.2 µM with CCRF-CEM leukemia; 18.2 µM with HCT-116 colon; 19.5 µM with MALME-3M melanoma; greater than 36.1 µM with NCI-H460 lung; greater than 100 µM in the assay with OVCAR-8 ovarian; 19.9 µM in the assay on SF-295 CNS. Further, the TGI is greater than 58.9 µM with TK-10 renal, 36.8 µM in the assay on U251 CNS and greater than 89 µM in the assay on UACC-257 melanoma.
On to `COc1cc2c(c(OC)c1)C1(CC(CC#N)C2)SCCS1` (stereo not given), for which the TGI in the assay with CCRF-CEM leukemia, in the assay on HCT-116 colon, in the assay on MALME-3M melanoma, in the assay on NCI-H460 lung, in the assay on OVCAR-8 ovarian and with TK-10 renal was greater than 100 µM each time. For the same compound, the concentration for total growth inhibition (TGI) in the assay with U251 CNS and with UACC-257 melanoma was greater than 100 µM each time.
For the compound `CC1=N/C(=C\c2cccc([N+](=O)[O-])c2)C(=O)O1`, the TGI with CCRF-CEM leukemia, with HCT-116 colon, with MALME-3M melanoma, with NCI-H460 lung, in the assay with OVCAR-8 ovarian and in the assay on SF-295 CNS was greater than 100 µM each time. Besides, the concentration for total growth inhibition (TGI) with TK-10 renal, with U251 CNS and in the assay with UACC-257 melanoma was greater than 100 µM each time.
As for `CN(C)C(c1ccccc1)C(O)c1ccccc1` (stereo not given), the TGI with CCRF-CEM leukemia, with MALME-3M melanoma, in the assay with NCI-H460 lung, with SF-295 CNS, with TK-10 renal and with U251 CNS was greater than 100 µM each time. The TGI in the assay with UACC-257 melanoma was greater than 100 µM.
